The values that follow are results of earlier work, collected in the CATMoS acute toxicity set (Mansouri et al. 2021).

Values joined by “and” are separate entries in the source; they are usually repeats but may differ in a detail not shown here. Equal values may be shown once.

A short description of this data set: rat acute oral toxicity. Conditions: in vivo.
Regarding `CN(N=O)c1cccnc1`, the LD50 is 10 mg/kg.
Consider `COC(=O)C1=C(C)NC(C)=C(C(=O)O[C@@H]2CCCN(Cc3ccccc3)C2)[C@@H]1c1cccc([N+](=O)[O-])c1` (racemic), for which the LD50 is 87.6 mg/kg.
Consider `CN(N=O)c1ccc(N=Nc2ccccc2)cc1`, for which the LD50 is 1200 mg/kg.
Take `C=CC(=O)NC`: the LD50 is 476 mg/kg.
As for `O=C(C=Cc1ccccc1)NO`, the LD50 was 2140 mg/kg.
Take `CC(=O)c1cc2cccc(OCC(O)CNC(C)C)c2o1` (stereo unspecified): the LD50 is 922 mg/kg.
Take `CC(C)(C)c1cc(Cl)cc(Sc2cc(Cl)cc(C(C)(C)C)c2O)c1O`: the LD50 was 6100 mg/kg.
As for `O=S(=O)(c1ccccc1)c1ccc(Cl)cc1`, the LD50 was 1400 mg/kg.
`CC=CC(=O)N(CC)c1ccccc1C`: the LD50 was 1500 mg/kg.
`C[N+](C)(C)C`: the LD50 was 77 mg/kg and 50 mg/kg.
Regarding `CCOP(=O)(OCC)SCSc1cc(Cl)ccc1Cl`, the LD50 was 38 mg/kg.
`C=CC(=O)OCCOCCOCCOCCOC(=O)C=C`: the LD50 is 813 mg/kg.
Turning to `CCc1cccc(C)c1N`, the LD50 was 885 mg/kg.
With `C/N=N/Nc1ccccc1`, the LD50 was 420 mg/kg.
With `N#Cc1ccc([N+](=O)[O-])cc1C#N`, the LD50 was 850 mg/kg.
On to `COP(=S)(OC)Oc1cc(Cl)c([N+](=O)[O-])c(Cl)c1`, for which the LD50 is 750 mg/kg.
Take `CCCC(=O)Nc1c(I)cc(I)c(CC(CC)C(=O)O)c1I` (stereo unspecified): the LD50 is 6500 mg/kg.
Regarding `CC(C)(C)c1cc([N+](=O)[O-])cc([N+](=O)[O-])c1O`, the LD50 is 26 mg/kg.
In the case of `S=C=Nc1ccc(Br)cc1`, the LD50 is 400 mg/kg.
In the case of `COCCOC`, the LD50 was 5370 mg/kg.
With `CCCCCCCCCCCCCCCC(=O)OCC(=O)[C@@]1(O)[C@H](C)C[C@H]2[C@@H]3CCC4=CC(=O)C=C[C@]4(C)[C@@]3(F)[C@@H](O)C[C@@]21C`, the LD50 was 315 mg/kg.
Turning to `CCCC(C)(Oc1ccc(Cc2ccc(Cl)cc2)cc1)C(=O)OCc1cccnc1` (stereo unspecified), the LD50 was 10000 mg/kg.
For the compound `S=c1[nH]c2ccccc2[nH]1`, the LD50 was 300 mg/kg.
In the case of `Clc1ccc(SCOC(Cn2ccnc2)c2ccc(Cl)cc2Cl)cc1` (stereo unspecified), the LD50 is 3850 mg/kg.
Regarding `COc1ccc2c(c1)c(CC(=O)OC/C=C(\C)CC/C=C(\C)CCC=C(C)C)c(C)n2C(=O)c1ccc(Cl)cc1`, the LD50 was 1680 mg/kg.
With `CN(C)N=Nc1ccccc1`, the median lethal dose (LD50) was 310 mg/kg.
`CN1CCC2(C)c3cc(OC(=O)NCCCCCCCCCCN4CCOCC4)ccc3N(C)C12` (stereo unspecified): the LD50 is 40 mg/kg.
On to `C1N2CN3CN1CN(C2)C3`, for which the 50% lethal dose (LD50) was 9200 mg/kg.
As to `CC(C)(C)[C@@H](O)[C@@H](Cc1ccc(Cl)cc1)n1cncn1` (single isomer, unassigned), the LD50 was 1300 mg/kg.
As to `CCCCC(CC)CNc1ccccc1` (stereo unspecified), the LD50 was 2410 mg/kg.
Take `CC(C)c1s[nH]c2nc(C(C)(C)C)nc(=O)c1-2`: the LD50 was 10200 mg/kg.
`O=c1n(CCCN2CCN(c3cccc(Cl)c3)CC2)nc2ccccn12`: the LD50 is 690 mg/kg.
As to `Cc1cc(Cl)ccc1N=CN(C)C`, the LD50 was 160 mg/kg.
As for `COc1c(OP(=O)(OC(C)C)OC(C)C)cnn(C)c1=O`, the 50% lethal dose (LD50) was 1.9 mg/kg.
With `CCCCSC(=Nc1cccnc1)SCc1ccc(C(C)(C)C)cc1`, the LD50 is 2700 mg/kg.
`CC(=O)CCc1ccc(O)cc1`: the LD50 is 1320 mg/kg.
Regarding `CCCC1=NN(c2ccccc2)C(=O)C1C=O` (stereo unspecified), the 50% lethal dose (LD50) was 765 mg/kg.
`Clc1c(Cl)c(Cl)c2c(c1Cl)Oc1c(Cl)c(Cl)c(Cl)c(Cl)c1O2`: the LD50 was 1 mg/kg.
As for `COC(=O)[C@H]1[C@H]2C[C@@H]3c4[nH]c5cc(OC)ccc5c4CCN3C[C@H]2C[C@H](OC)[C@@H]1OC`, the LD50 was 182 mg/kg.
In the case of `CCOP(=S)(OCC)Oc1cc(C)nc(N(C)C)n1`, the LD50 was 125 mg/kg.
In the case of `CCN(CC)C(=O)c1cccc(OC)c1O`, the LD50 is 2080 mg/kg.
Turning to `CS(=O)(=O)N(Cc1cccnc1)c1ccc(F)cc1F`, the LD50 is 1060 mg/kg.
Consider `CC(=O)CCC1C(=O)N(c2ccccc2)N(c2ccccc2)C1=O`, for which the LD50 is 720 mg/kg.
On to `C1CCC(CNC2=NCCS2)CC1`, for which the LD50 was 50 mg/kg.
Consider `CN(C)c1ccc(Cn2cnc3c2c(=O)n(C)c(=O)n3C)cc1`, for which the LD50 is 1100 mg/kg.
In the case of `CN1C(=O)CC(=O)N(c2ccccc2)c2cc(Cl)ccc21`, the LD50 was 6000 mg/kg.
Take `COCC=O`: the LD50 was 2330 mg/kg.
With `C#CCCCC#C`, the LD50 was 2300 mg/kg.
On to `CC(C)=NNC(=O)CSc1cc(Oc2ccc(F)cc2)ncn1`, for which the LD50 is 380 mg/kg.
On to `O=C(Cc1ccc2c(c1)OCc1ccccc1C2=O)OCC(O)CO` (stereo unspecified), for which the LD50 is 95 mg/kg.
For the compound `C=CCOC(=O)/C=C\C(=O)OCC=C`, the LD50 was 300 mg/kg.
For the compound `C[C@H](CCC(=O)O)[C@H]1CC[C@H]2[C@@H]3C(=O)C[C@@H]4CC(=O)CC[C@]4(C)[C@H]3CC(=O)[C@]12C`, the LD50 is 3760 mg/kg and 4000 mg/kg.
Turning to `O=C(NN1CCCC1)NS(=O)(=O)c1ccc(Cl)cc1`, the LD50 was 4100 mg/kg.
Take `FCCOC(Cl)C(Cl)(Cl)Cl` (stereo unspecified): the LD50 is 18 mg/kg.
As to `CCC1OCCSC1=NOC(=O)NC` (stereo unspecified), the LD50 was 19 mg/kg.
Consider `CC(=O)OC(C(Cl)(Cl)Cl)P(=O)(Oc1ccccc1)Oc1ccccc1` (stereo unspecified), for which the LD50 is 3280 mg/kg.
Consider `CCSCc1cnc(C)c(O)c1CO`, for which the 50% lethal dose (LD50) was 3770 mg/kg.
Consider `OCC1CCCO1` (stereo unspecified), for which the 50% lethal dose (LD50) was 1600 mg/kg.
As for `CCCOc1cc(C=CC(=S)OCC)ccc1OC`, the LD50 was 970 mg/kg.
`CNNCc1ccc(C(=O)NC(C)C)cc1`: the LD50 was 570 mg/kg.
`CCCCCCC(=O)OCCN1CCN(CCCN2c3ccccc3Sc3ccc(C(F)(F)F)cc32)CC1`: the LD50 was 230 mg/kg.
On to `CCC(C)OC(C[n+]1ccccc1)c1ccccc1` (stereo unspecified), for which the LD50 was 250 mg/kg.
Consider `O=[N+]([O-])c1ccccc1-c1ccccc1`, for which the LD50 is 1230 mg/kg.
`N#CC(O)c1cccc(Oc2ccccc2)c1` (stereo unspecified): the LD50 was 800 mg/kg.
As for `NCCCCC(CN)CCCN` (stereo unspecified), the LD50 is 760 mg/kg.
In the case of `C=C(C)C(=O)OCCO`, the LD50 is 5620 mg/kg.
In the case of `CCOP(=S)(OCC)SCCSCC(=O)NC`, the LD50 is 18 mg/kg.
Consider `O=C(NC(CCc1ccc2c(c1)OCO2)CCc1ccc2c(c1)OCO2)c1ccc(Cl)cc1`, for which the LD50 is 1800 mg/kg.
Regarding `CCCCCCC(C)=CC#N`, the LD50 was 1720 mg/kg.
Take `CCCCCCCC(=O)OCC`: the 50% lethal dose (LD50) was 26000 mg/kg.
Turning to `CC(=O)Nc1ccc2nc(C(F)(F)F)[nH]c2c1`, the median lethal dose (LD50) is 23.8 mg/kg.
Turning to `CNC(=O)Oc1cccc2c1OC(C)(C)C2O` (stereo unspecified), the LD50 was 18 mg/kg.
For the compound `Cn1c(=O)c2c(ncn2CCCN2CCN(CCCSc3ccccc3)CC2)n(C)c1=O`, the LD50 was 1600 mg/kg.
As for `COC(=O)C(C)c1ccc(-c2ccsc2)cc1` (stereo unspecified), the LD50 is 2330 mg/kg.
For `CC(=O)OC(C(=O)NC(N)=O)c1ccccc1` (stereo unspecified), the LD50 was 2100 mg/kg.
Regarding `O=C(OCCCOC(=O)c1ccccc1)c1ccccc1`, the LD50 was 24000 mg/kg.
Turning to `O=C1CCc2cccc3c2N1CC3`, the LD50 is 321 mg/kg.
On to `COc1ccc([C@@H]2Sc3ccccc3N(CCN(C)C)C(=O)[C@@H]2OC(C)=O)cc1`, for which the LD50 was 560 mg/kg.
Regarding `C[N+]1(CCN(C2CCCCC2)C2CCCCC2)CCCCC1`, the 50% lethal dose (LD50) is 650 mg/kg.
Regarding `O=NN(CCCl)C(=O)NCCCl`, the LD50 is 20 mg/kg.
For `CCCCCCCCCCCCN`, the LD50 is 1020 mg/kg.
Consider `CC(=O)CCC(=O)O`, for which the LD50 was 1850 mg/kg.
With `COC(=O)c1c(Cl)c(Cl)c(C(=O)SC)c(Cl)c1Cl`, the LD50 was 3300 mg/kg.
For the compound `Cc1cn([C@H]2C[C@H](N=[N+]=[N-])[C@@H](CO)O2)c(=O)[nH]c1=O`, the LD50 was 3080 mg/kg.
Take `CCNc1nc(Cl)nc(NCC)n1`: the LD50 was 971 mg/kg.
For `O=c1c2cccnc2oc2c(Cl)cc(-c3nn[nH]n3)cc12`, the 50% lethal dose (LD50) was 16000 mg/kg.
For the compound `Cc1[nH]c2ccccc2c1C=CC1=[N+](C)c2ccccc2C1(C)C`, the LD50 is 2450 mg/kg.
With `O=c1occo1`, the LD50 was 300 mg/kg.
Turning to `CN=NNc1ccc(C)cc1`, the LD50 was 381 mg/kg.
With `C=CC(=O)NC(OC)C(=O)OC` (stereo unspecified), the LD50 is 2090 mg/kg.
For `O=NN1CCCOC1`, the LD50 is 600 mg/kg.
Take `O=NN1CCCCCCCC1`: the LD50 was 566 mg/kg.
As for `COCCOC(=O)CCCCCCCCC(=O)OCCOC`, the LD50 was 4970 mg/kg.
As to `O=S1(=O)CS(=O)(=O)OCO1`, the LD50 was 300 mg/kg.
`COc1ccc(C(O)(c2cncnc2)C2CC2)cc1` (stereo unspecified): the LD50 is 4500 mg/kg.
`Cc1ccc2c(c1)c(-c1ccccc1)cn2N(CCN(C)C)CCN(C)C`: the LD50 was 980 mg/kg.
For `Cc1nc(N)nc(N2N=CCC2C)n1` (stereo unspecified), the LD50 was 3200 mg/kg.
`CCCCN=C(NCCCC)C(OCC)c1ccc(Cl)cc1` (stereo unspecified): the LD50 is 220 mg/kg.
As for `CNC(=O)Oc1ccc(C)c(N(C)C)c1`, the LD50 was 46 mg/kg.
With `CN(N=O)c1ccncc1`, the LD50 is 200 mg/kg.
As for `C=CCCCCCCCCC(=O)OC`, the LD50 was 1560 mg/kg.
As for `O=C(Cl)C(Br)CBr` (stereo unspecified), the LD50 is 1200 mg/kg.
With `COCCOCCOCCOC(C)=O`, the LD50 was 11000 mg/kg.
Turning to `CCOP(=S)(OCC)SCc1ccc([N+](=O)[O-])cc1`, the LD50 was 100 mg/kg.
In the case of `O=[N+]([O-])c1ccc(Nc2ccc(O)cc2)c([N+](=O)[O-])c1`, the LD50 is 15600 mg/kg.
As for `CCCCCCOCCOC(=O)CCCCC(=O)OCCOCCCCCC`, the LD50 is 4290 mg/kg.
As to `CC(C)NCC1CCc2cc(CO)c([N+](=O)[O-])cc2N1` (stereo unspecified), the LD50 was 30 mg/kg.
For the compound `O=C(O)c1cc2ccccc2c(Cc2c(O)c(C(=O)OCCOCCN3CCN(C(c4ccccc4)c4ccc(Cl)cc4)CC3)cc3ccccc23)c1O` (stereo unspecified), the median lethal dose (LD50) was 1740 mg/kg.
On to `CCCC/C=C/C=O`, for which the LD50 is 1300 mg/kg.
Consider `Nc1ccc(F)c(F)c1F`, for which the LD50 is 699 mg/kg.
Regarding `O=C1NC2CCCCN2C12CCN(CCCN1c3ccccc3CCc3ccc(Cl)cc31)CC2` (stereo unspecified), the LD50 was 4910 mg/kg.
For `CC(N)(Cc1ccc(O)c(O)c1)C(=O)O` (stereo unspecified), the LD50 is 5710 mg/kg.
For the compound `O=C(CCCN1CCN(c2ccccc2)CC1)c1ccc(F)cc1`, the LD50 was 550 mg/kg.
Take `CCOC(=S)c1ccc2c(c1)OCO2`: the LD50 is 1160 mg/kg.
With `CN(C)C1CSSC1`, the median lethal dose (LD50) is 420 mg/kg.
For the compound `CCOC(=O)C1(c2ccccc2)CCN(CCc2ccc(N)cc2)CC1`, the LD50 was 175 mg/kg.
With `CC(C)(C)NC[C@H](O)COc1cccc2c1CCCC2=O`, the LD50 was 700 mg/kg.
Turning to `CCSC(=O)Oc1c(C(C)CC)cc([N+](=O)[O-])cc1[N+](=O)[O-]` (stereo unspecified), the LD50 was 147 mg/kg.
In the case of `Oc1ccc(Nc2ccc3ccccc3c2)cc1`, the 50% lethal dose (LD50) was 5200 mg/kg.
In the case of `CCC(O)(c1ccccc1)c1cccc(C(F)(F)F)c1` (stereo unspecified), the LD50 was 2240 mg/kg.
As to `CCNCC(O)c1cccc(O)c1` (stereo unspecified), the LD50 is 114 mg/kg.
